# Measured values as given in patent US12329158B2, “Large-scale methods of uniformly coating packaging surfaces with a volatile antimicrobial to preserve food freshness” (AGROFRESH INC., priority 2013, dated 2025).
# Like-named read-outs stand apart in the source and are kept apart here.
# What was measured:
# Format in all cases: cell-based
# Botrytis cinerea [1] = experiment: In vitro inhibition assay for volatile fungicide, 12-well plates (Example 7); conditions: volatile; 14 days at 4 C
# Description: For testing activity against fungi pathogens, an in vitro inhibition assay for volatile antimicrobial compounds is developed using 12-Well (7 milliliter (mL) volume per well) microtiter plates. A 3-mL volume of full-strength Potato Dextrose Agar (PDA) is added to each well. After cooling, 1 microliter (μL) of 1×10^6 per mL Botrytis cinerea spore suspension is spot pipetted to the center of the agar. For the first experiment, inoculated plates are allowed to germinate for 5 days at 4° C. For the second experiment, plates are inoculated immediately prior to volatile fungicide treatment. Small Whatman #1 filter disks (Cat. No. 1001-0155) are placed, in duplicate, on the underside of a polyethylene PCR plate sealing film.
# The acetone is permitted to evaporate for 5 minutes. The headspace around the Botrytis cinerea inoculum is then sealed inside the well by the film with the adhering disk containing the fungicide. Plates are inverted, placed over the treated disks and sealed to prevent any of the chemical from flaking from the disk and falling onto the inoculated agar. After 14 days of storage at 4° C., cultures are evaluated for percent growth relative to control. […]
# Penicillium expansum [2] = experiment: In vitro volatile assay (Example 24); conditions: 72 h, headspace, 100% control, 3 days at 23 C, read-out: Volatile MIC (mg/L) P. expansum
# Description: (§1) Volatile assay: 12-well (6.5 mL volume per well) microtiter plates are used. A 3-mL volume of half strength PDA is added to each well. […] A Whatman #1 filter disk (Cat. No. 1001-0155) is placed, in duplicate, on the underside of a polyethylene PCR plate sealing film. […] The acetone is permitted to evaporate for 5 minutes. The headspace around the inoculum is then sealed inside the well by the film with the adhering disk containing the fungicide. Plates are inverted, placed over the treated disks, and sealed to prevent any of the chemical from flaking from the disk and falling onto the inoculated agar. […] Contact assay: 6-well (16.5 mL volume per well) microtiter plates are used for an in vitro inhibition assay. […] A 7.5-mL volume of the amended media is added to each well of the microtiter plate. […] The plates are sealed with a clear film and incubated for 3 days at 23° C. After incubation, plates are evaluate for percent growth relative to acetone only control.
# Botrytis cinerea [3] = experiment: In vitro volatile assay (Example 24); conditions: 72 h, headspace, 100% control, 3 days at 23 C, read-out: Volatile MIC (mg/L) B. cinerea
# Description: as §1
# Trichophyton rubrum [4] = experiment: In vitro volatile assay (Example 26); conditions: Trichophyton rubrum, 120 h, 5 days at 28 C, 100% control, read-out: MIC (mg/L) Trichophyton rubrum
# Description: (§2) Volatile assay: 6-well (16.5 mL volume per well) microtiter plates are used in an in vitro inhibition assay for Compounds A and 31, and compared to other registered fungicides (5-fluorocytosine, Amphotericin B, aspofungin diacetate, Fluconazole and Itraconazole). A 7.5-mL volume of half strength PDA is added to each well. After drying, a mycelial plug (5 mm diameter) is aseptically obtained from actively growing cultures of Epidermophyton floccus, Trichophyton rubrum, or Trichophyton mentagrophytes and placed at the center of the plate with the mycelial side in contact with the agar. A Whatman #1 filter disk (Cat. No. 1001-325) is placed, in duplicate, on the underside of a polyethylene PCR plate sealing film. […] The headspace around the inoculum is then sealed inside the well by the film with the adhering disk containing the fungicide and incubated inverted for 5 days at 28° C.
# [5] = test system: Trichophyton mentagrophytes; experiment: In vitro volatile assay (Example 26); conditions: Trichophyton mentagrophytes, 120 h, 5 days at 28 C, 100% control, read-out: MIC (mg/L) Trichophyton mentagrophytes
# Description: as §2
# Trichophyton rubrum [6] = experiment: In vitro contact assay (Example 26); conditions: Trichophyton rubrum, 120 h, 5 days at 28 C, 100% control, read-out: MIC (mg/L) Trichophyton rubrum
# Description: (§3) Half-strength Potato Dextrose Agar (PDA) is amended with a mixture of one of the test compounds in acetone or methanol to a final concentration of 50, 10, 2, 0.4 or 0.08 mg/L. A 3-mL volume of the amended media is added to each well of the microtiter plate. […] The plates are sealed with a clear film and incubated inverted for 5 days at 28° C.
# [7] = test system: Trichophyton mentagrophytes; experiment: In vitro contact assay (Example 26); conditions: Trichophyton mentagrophytes, 120 h, 5 days at 28 C, 100% control, read-out: MIC (mg/L) Trichophyton mentagrophytes
# Description: as §3
# P. expansum = experiment: In vitro contact assay, amended agar (Example 24); conditions: Penicillium expansum, 72 h, read-out: Contact MIC (mg/L) P. expansum
# Description: (§4) Contact assay: 6-well (16.5 mL volume per well) microtiter plates are used for an in vitro inhibition assay. […] A 7.5-mL volume of the amended media is added to each well of the microtiter plate. […] The plates are sealed with a clear film and incubated for 3 days at 23° C. After incubation, plates are evaluate for percent growth relative to acetone only control.
# B. cinerea = experiment: In vitro contact assay, amended agar (Example 24); conditions: Botrytis cinerea, 72 h, read-out: Contact MIC (mg/L) B. cinerea
# Description: as §4
# Penicillium expansum [8] = experiment: Volatile MIC assay (Example 10); conditions: 72 h, read-out: MIC (mg/L) PENIEX
# Description: (§5) 12-Well (6.5 mL volume per well) microtiter plates are used for the in vitro inhibition assay for volatile antimicrobial compounds. A 3-mL volume of full-strength Potato Dextrose Agar (PDA) is added to each well. After cooling, 1 μL of 1×10^5 per mL Botrytis cinerea and Penicillium expansum spore suspension is spot-pipetted to the center of the agar. Plates are inoculated immediately prior to volatile fungicide treatment. A Whatman #1 filter disk (Cat. No. 1001-0155) is placed, in duplicate, on the underside of a polyethylene PCR plate sealing film. […] The headspace around the inoculum is then sealed inside the well by the film with the adhering disk containing the fungicide by inverting the plates over the treated disks and sealing to prevent any of the chemical from flaking from the disk and falling onto the inoculated agar. After 3 days of storage at 23° C., the cultures are evaluated for percent growth relative to control based on measurement of fungal colony diameter.
# Botrytis cinerea [9] = experiment: Volatile MIC assay (Example 10); conditions: 72 h, read-out: MIC (mg/L) BOTRCI
# Description: as §5
# Penicillium expansum [10] = experiment: Volatile MIC assay (Example 9); conditions: 72 h, headspace concentration, 3 days at 23 C, read-out: MIC (mg/L) PENIEX
# Description: (§6) A 3-mL volume of full-strength Potato Dextrose Agar (PDA) is added to each well. […] Plates are inoculated immediately prior to volatile fungicide treatment. A Whatman #1 filter disk (Cat. No. 1001-0155) is placed, in duplicate, on the underside of a polyethylene PCR plate sealing film. […] The acetone is permitted to evaporate for 5 minutes. The headspace around the inoculum is then sealed inside the well by the film with the adhering disk containing the fungicide by inverting the plates over the treated disks and sealing to prevent any of the chemical from flaking from the disk and falling onto the inoculated agar.
# Botrytis cinerea [11] = experiment: Volatile MIC assay (Example 9); conditions: 72 h, headspace concentration, 3 days at 23 C, read-out: MIC (mg/L) BOTRCI
# Description: as §6
# Alternaria alternata = experiment: Volatile MIC assay (Example 9); conditions: 72 h, headspace concentration, 3 days at 23 C, read-out: MIC (mg/L) ALTEAL
# Description: as §6
# Monilinia fructicola = experiment: Volatile MIC assay (Example 9); conditions: 72 h, headspace concentration, 3 days at 23 C, read-out: MIC (mg/L) MONIFC
# Description: as §6
# [12] = amended agar, 100% control, 3 days at 23 C
# [13] = volatile treatment, 3 days at 23 C
SMILES,MIC (Penicillium expansum [8]; [13]),MIC (Botrytis cinerea [9]; [13]),further results
"OB1OCc2ccccc21 [Compound B2, 2-(hydroxymethyl)phenylboronic acid cyclic monoester]",,,Rate giving 100% in vitro inhibition of Botrytis cinerea (Botrytis cinerea [1]): 0.0078 mg/disk
CC(COB1OCc2cc(F)ccc21)OB1OCc2cc(F)ccc21 (stereo not drawn) [Compound 31],,,MIC (Penicillium expansum [2]): 8.9 mg/L; MIC (Botrytis cinerea [3]): 0.6 mg/L; MIC (Trichophyton rubrum [4]): 2 mg/L; MIC [5]: 2 mg/L; MIC (Trichophyton rubrum [6]): 10 mg/L; MIC [7]: 2 mg/L; MIC (P. expansum; [12]): 2 mg/L; MIC (B. cinerea; [12]): 0.4 mg/L
N#C[B-]1(O)OCc2cc(F)ccc21.[Na+] (stereo not drawn) [Compound 132],,,MIC (Penicillium expansum [2]): 4.5 mg/L; MIC (Botrytis cinerea [3]): 1.1 mg/L; MIC (P. expansum; [12]): 2 mg/L; MIC (B. cinerea; [12]): 2 mg/L
CN(CCO)CCOB1OCc2cc(F)ccc21 [Compound 72],> 35.7 mg/L,35.7 mg/L,
CNCCOB1OCc2cc(F)ccc21 [Compound 87],8.9 mg/L,0.6 mg/L,
NCCOB1OCc2cc(F)ccc21 [Compound 34],,,MIC (Penicillium expansum [2]): 2.2 mg/L; MIC (Botrytis cinerea [3]): 0.6 mg/L; MIC (P. expansum; [12]): 0.4 mg/L; MIC (B. cinerea; [12]): 2 mg/L; MIC (Penicillium expansum [10]): 2.2 mg/L; MIC (Botrytis cinerea [11]): < 0.6 mg/L; MIC (Alternaria alternata): 2.2 mg/L
OB1OCc2cc(Cl)ccc21 [Compound 124],8.9 mg/L,4.5 mg/L,MIC (Penicillium expansum [2]): 8.9 mg/L; MIC (Botrytis cinerea [3]): 4.5 mg/L; MIC (P. expansum; [12]): 2 mg/L; MIC (B. cinerea; [12]): 2 mg/L
COCCOB1OCc2cc(F)ccc21 [Compound 38],8.9 mg/L,0.6 mg/L,
Nc1ccccc1OB1OCc2cc(F)ccc21 [Compound 116],8.9 mg/L,1.1 mg/L,
NCCCOB1OCc2cc(F)ccc21 [Compound 64],8.9 mg/L,1.1 mg/L,
C=C(C)B1OCc2cc(F)ccc21 [Compound 137],1.1 mg/L,0.3 mg/L,
Fc1ccc2c(c1)COB2OCCOB1OCc2cc(F)ccc21 [Compound B],,,MIC (Penicillium expansum [2]): 8.9 mg/L; MIC (Botrytis cinerea [3]): 0.6 mg/L; MIC (P. expansum; [12]): 2 mg/L; MIC (B. cinerea; [12]): 0.4 mg/L
OB1OCc2cc(F)c(F)cc21 [Compound 204],> 35.7 mg/L,8.9 mg/L,
COc1cccc(B2OCc3cc(F)ccc32)c1 [Compound 136],> 35.7 mg/L,8.9 mg/L,
O[B@@-]1([NH2+]Cc2ccccc2)OCc2ccccc21 [Compound 121],17.9 mg/L,4.5 mg/L,MIC (Penicillium expansum [2]): 17.9 mg/L; MIC (Botrytis cinerea [3]): 4.5 mg/L; MIC (P. expansum; [12]): 10 mg/L; MIC (B. cinerea; [12]): 10 mg/L
COCCCOB1OCc2cc(F)ccc21 [Compound 39],8.9 mg/L,0.6 mg/L,
COc1ccc(B2OCc3cc(F)ccc32)cc1 [Compound 135],> 35.7 mg/L,17.9 mg/L,MIC (Penicillium expansum [2]): > 35.7 mg/L; MIC (Botrytis cinerea [3]): 17.9 mg/L; MIC (P. expansum; [12]): 2 mg/L; MIC (B. cinerea; [12]): 2 mg/L
Fc1ccc(B2OCc3cc(F)ccc32)cc1 [Compound 133],35.7 mg/L,8.9 mg/L,
OB1OCc2c(F)cccc21 [Compound 202],143 mg/L,35.7 mg/L,

SMILES,MIC (Penicillium expansum [8]; [13]),MIC (Botrytis cinerea [9]; [13]),further results
CN(C)CCCOB1OCc2cc(F)ccc21 [Compound 63],17.9 mg/L,1.1 mg/L,
OCCOCCOB1OCc2cc(F)ccc21 [Compound 62],8.9 mg/L,2.2 mg/L,
CCCCOB1OCc2cc(F)ccc21 [Compound 30],,,MIC (Penicillium expansum [10]): 8.9 mg/L; MIC (Botrytis cinerea [11]): 2.2 mg/L; MIC (Alternaria alternata): 2.2 mg/L; MIC (Monilinia fructicola): 2.2 mg/L
OB1OCc2ccc(F)cc21 [Compound 200],,,MIC (Penicillium expansum [10]): 68.3 mg/L; MIC (Botrytis cinerea [11]): 10.6 mg/L; MIC (Alternaria alternata): 7.3 mg/L; MIC (Monilinia fructicola): 6.3 mg/L
Fc1cccc(B2OCc3cc(F)ccc32)c1 [Compound 134],> 35.7 mg/L,17.9 mg/L,
OCCNCCOB1OCc2cc(F)ccc21 [Compound 73],> 35.7 mg/L,35.7 mg/L,
NCCOB1OCc2ccccc21 [Compound 21],35.7 mg/L,1.1 mg/L,
OCCOCCOCCOB1OCc2cc(F)ccc21 [Compound 55],> 35.7 mg/L,4.5 mg/L,
OB1OCc2cccc(F)c21 [Compound 203],143 mg/L,8.9 mg/L,
N#C[B-]1(O)OCc2cc(F)ccc21.[K+] (stereo not drawn) [Compound 130],,,MIC (Penicillium expansum [8]): 4.5 mg/L; MIC (Botrytis cinerea [9]): 1.1 mg/L; MIC (P. expansum): 0.4 mg/L; MIC (B. cinerea): 2 mg/L
CN(C)CCOB1OCc2cc(F)ccc21 [Compound 74],35.7 mg/L,2.2 mg/L,
CC(C)(N)COB1OCc2cc(F)ccc21 [Compound 115],8.9 mg/L,0.6 mg/L,
OCCCCCCOB1OCc2cc(F)ccc21 [Compound 86],8.9 mg/L,0.6 mg/L,
C=CB1OCc2cc(F)ccc21 [Compound 129],8.9 mg/L,4.5 mg/L,
Fc1ccc2c(c1)COB2c1ccccc1 [Compound 127],4.5 mg/L,2.2 mg/L,
CN(C)CCOB1OCc2ccccc21 [Compound 22],35.7 mg/L,4.5 mg/L,
C[Si](C)(C)OB1OCc2ccccc21 [Compound 122],,,MIC (Botrytis cinerea [9]): 2.2 mg/L
OB1OC(N2CCOCC2)c2ccccc21 (stereo not drawn) [Compound 114],> 35.7 mg/L,17.9 mg/L,
